Test results published in US4570005A, “Process for the preparation of 2-arylpropyl ether or thioether derivatives” (priority 1980, dated 1986).

Assays:
diamond back moth = test: Test 4: Effect on Diamond Back Moth; assay type: in vivo; conditions: Plutella, third-instar larvae, 24 hours, read-out: Mortality (%)
Description: (§1) To a mixture of 20 parts of the compound of the present invention and 20 parts of Sorpol SM-200 (registered tradename for the product supplied by Toho Chemical Industrial Co., Ltd.) was added 60 parts of xylol, and the mixture was suffciently blended. The obtained emulsifiable concentrate was diluted at a predetermined concentration with distilled water, and the obtained dilution was used.
Cabbage leaves were spread in a plastic cup, and 10 third-instar larvae of diamond back moth were set free in the cup.
A chemical dilution having a concentration of 100 or 20 ppm, prepared in the same manner as described in Test 1, was applied from an applicator at a rate of 3 ml per cup.
After scattering of the chemical dilution, the cup was covered, and after 24 hours, the numbers of killed and living larvae were counted and the mortality was calculated. The test was made on three cups and the average value was calculated.

German cockroach = test: Test 7: Effect on German Cockroach; assay type: in vivo; conditions: Blattella germanica, male adults, agonized and killed after 24 hours, read-out: Mortality (%); for mortality at 10 mg/m2: 10 mg/m^2; for mortality at 50 mg/m2: 50 mg/m^2
Description: as §1
The bottom face of a high Petri dish having a diameter of 9 cm and a height of 9 cm was treated with 50 or 10 mg/m^2 of a test compound and the dish was air-dried. In order to prevent the adults from escaping from the dish, the inner wall of the dish was treated with butter. Then, 10 male adults of German cockroach were set free in each dish, and the dish was placed in a thermostat chamber maintained at 25° C. After 24 hours, the number of agonized and killed adults was counted. The test was made on two dishes and the average value was calculated.

[1] = Test 9: Toxicity Test (acute oral toxicity, mice); conditions: mouse, in vivo, po
Description: A predetermined amount of a solution or suspension of a test compound in corn oil was orally administered to male mice having a body weight of 19 to 23 g (0.2 ml per 10 g of the body weight). After 7 days, the number of killed mice was counted and the influences on the mice were examined.

Test 8: Fish Toxicity = assay type: in vivo; conditions: carp, water; concentration at which 1/2 of the test fishes were killed within 48 hours; read-out: Fish Toxicity, TLm48
Description: A water tank having a width of 60 cm, a length of 30 cm and a height of 40 cm was filled with water, and 10 yearling carps having a body length of about 5 cm were set free in the tank and adapted to the environment in the tank. A test compound was applied so that the concentration in water was 10, 1 or 0.1 ppm. After 48 hours, the numbers of killed and living carps were counted and the influences on the fishes were examined.

[2] = test system: sensitive green rice leafhopper (collected at Chigasaki); test: whole plant or invertebrate; assay type: in vivo; conditions: Nephotettix cincticeps, sensitive female adults, 24 hours, read-out: Mortality (%), Green Rice Leafhopper Collected at Chigasaki
Description: as §1
(§2) Seedlings (having 2 to 3 leaves) of paddy rice were hydroponically cultured in a pot having a diameter of 5 cm. A chemical dilution having a concentration of 100 or 20 ppm, prepared in the same manner as described in Test 1, was applied with a sprayer at a rate of 3 ml per pot. The treated seedlings were air-dried and covered with a metal net cylinder, and female adults of resistant green rice leafhopper (collected at Nakagawara) and sensitive green rice leafhopper (collected at Chigasaki) were set, respectively, free in the pot at a density of 10 adults per pot. After 24 hours, the numbers of killed and living adults were counted and the mortality was calculated. The test was made on three pots and the average value was calculated.

[3] = test system: resistant green rice leafhopper (collected at Nakagawara); test: Test 3: Effect on Resistant Green Rice Leafhopper (collected at Nakagawara); assay type: in vivo, Nephotettix cincticeps Uhler (Green rice leafhopper); conditions: Nephotettix cincticeps, 24 h, read-out: Mortality (%), Green Rice Leafhopper Collected at Nakagawara
Description: as §1, §2

tobacco cutworm [4] = test: Test 1: Effect on Tobacco Cutworm (leaf immersion), mortality after 24 hours; assay type: in vivo; conditions: second-instar larvae, 25° C
Description: as §1
An emulsifiable concentrate of a test compound prepared according to the method described in Formulation Example 1 was diluted to a concentration of 100 or 20 ppm. Sweet-potato leaves were immersed in the dilution for 10 seconds, air-dried and placed in a plastic cup having a diameter of 10 cm. Then second-instar larvae of tobacco cutworm were set free in the cup. The cup was allowed to stand still in a thermostat chamber maintained at 25° C. After 24 hours, the numbers of killed and living larvae were counted and the mortality was calculated. The obtained result was expressed by an average value obtained from the mortality calculated in three test cups.

tobacco cutworm [5] = test: Test 2: Tobacco Cutworm Larva Dipping Test, mortality after 24 hours; assay type: in vivo; conditions: 24 hours
Description: as §1
A dilution having a chemical concentration of 100 or 20 ppm was prepared in the same manner as described in Test 1.
Second-instar and fifth-instar larvae of tobacco cutworm were dipped in the dilution for 5 seconds, and the excessive dilution was removed by a filter paper. Then, the larvae were set free in a plastic cup and an artificial diet was supplied thereto. The cup was allowed to stand still in a thermostat chamber maintained at 25° C. After 24 hours, the numbers of the killed and living larvae were counted and the mortality was calculated. The test was made on three cups and the result was expressed by an average value.

[6] = fifth-instar larvae, read-out: Motality (%), Fifth-Instar Larvae
[7] = second-instar larvae, read-out: Motality (%), Second-Instar Larvae

Row | SMILES | mortality at 20 ppm (diamond back moth) | mortality at 100 ppm (diamond back moth) | mortality at 10 mg/m2 (German cockroach) | mortality at 50 mg/m2 (German cockroach) | LD50 at 168 h [1] | LC50 at 48 h (Test 8: Fish Toxicity) | mortality at 20 ppm [2] | mortality at 100 ppm [2] | mortality at 20 ppm [3] | mortality at 100 ppm [3] | mortality at 20 ppm (tobacco cutworm [4]) | mortality at 100 ppm (tobacco cutworm [4]) | mortality at 20 ppm (tobacco cutworm [5]; [6]) | mortality at 20 ppm (tobacco cutworm [5]; [7]) | mortality at 100 ppm (tobacco cutworm [5]; [6]) | mortality at 100 ppm (tobacco cutworm [5]; [7])
1 | CC(C)(COCc1cccc(Oc2ccccc2)c1)c1ccc(SC(F)(F)F)cc1 [Compound 104, 3-Phenoxybenzyl 2-(4-trifluoromethylthiophenyl)-2-methylpropyl ether] | 70% | 100% | 90% | 100% | > 500 mg/kg |  |  |  |  |  |  |  |  |  |  | 
2 | COc1ccc(Oc2cccc(COCC(C)(C)c3ccccc3)c2)cc1 [Compound 13, 3-(4-methoxyphenoxy)benzyl 2-phenyl-2-methylpropyl ether] |  |  |  |  | > 500 mg/kg | > 10 µg/mL | 50% | 100% | 70% | 100% |  |  |  |  |  | 
3 | Cc1ccc(Oc2cccc(COCC(C)(C)c3ccc(Cl)cc3)c2)cc1 [Compound 19, 3-(4-methylphenoxy)benzyl 2-(4-chlorophenyl)-2-methylpropyl ether] |  |  |  |  | > 500 mg/kg | > 10 µg/mL | 90% | 100% | 100% | 100% |  |  |  |  |  | 
4 | CC(C)(COCc1cccc(Oc2cccc(Cl)c2)c1)c1ccc(Cl)c(Cl)c1 [Compound 38, 3-(3-Chlorophenoxy)benzyl 2-(3,4-dichlorophenyl)-2-methylpropyl ether] |  |  | 90% | 100% | > 500 mg/kg |  | 80% | 100% | 95% | 100% |  |  |  |  |  | 
5 | CC(C)(COCc1cccc(Oc2ccc(Br)cc2)c1)c1ccc(Cl)c(Cl)c1 [Compound 21, 3-(4-Bromophenoxy)benzyl 2-(3,4-dichlorophenyl)-2-methylpropyl ether] |  |  |  |  | > 500 mg/kg | > 10 µg/mL | 60% | 100% | 85% | 100% |  |  |  |  |  | 
6 | CC(C)(COCc1cccc(Oc2ccccc2)c1)c1ccc(OC2CCCC2)cc1 [Compound 61, 3-Phenoxybenzyl 2-(4-cyclopentyloxyphenyl)-2-methylpropyl ether] |  |  | 70% | 100% | > 500 mg/kg |  | 100% | 100% | 100% | 100% |  |  |  |  |  | 
7 | CC(C)(COCc1cccc(Oc2ccccc2)c1)c1ccc(I)cc1 [Compound 65, 3-Phenoxybenzyl 2-(4-iodophenyl)-2-methylpropyl ether] |  |  | 90% | 100% | > 500 mg/kg |  | 100% | 100% | 100% | 100% | 90% | 100% |  |  |  | 
8 | CC(C)(COCc1cccc(Oc2ccccc2)c1)c1ccc(Br)cc1 [Compound 107, 3-Phenoxybenzyl 2-(4-bromophenyl)-2-methylpropyl ether] |  |  |  |  | > 500 mg/kg | > 1 µg/mL | 100% | 100% | 100% | 100% |  |  |  |  |  | 
9 | CC1(C)C(C=C(Cl)Cl)C1C(=O)OCc1cccc(Oc2ccccc2)c1 (centres unmarked) [(i), Permethrin, reference compound] |  |  |  |  |  | < 0.005 µg/mL |  |  |  |  |  |  |  |  |  | 
10 | CC(C)(COCc1cccc(Oc2ccc(F)cc2)c1)c1ccc(Cl)c(Cl)c1 [Compound 17, 3-(4-fluorophenoxy)benzyl 2-(3,4-dichlorophenyl)-2-methylpropyl ether] | 90% | 100% | 100% | 100% | > 500 mg/kg |  | 100% | 100% | 100% | 100% | 80% | 100% |  |  |  | 
11 | CC(C)(COCc1cccc(Oc2ccc(F)cc2)c1)c1cccc(C(F)(F)F)c1 [Compound 23, 3-(4-Fluorophenoxy)benzyl 2-(3-trifluoromethylphenyl)-2-methylpropyl ether] |  |  |  |  | > 500 mg/kg | > 1 µg/mL |  |  |  |  | 80% | 100% |  |  |  | 
12 | CC(C)(COCc1cccc(Oc2ccccc2)c1)c1ccc(OC(F)(F)CI)cc1 [Compound 74, 3-Phenoxybenzyl 2-[4-(1,1-difluoro-2-iodoethoxy)phenyl]-2-methylpropyl ether] |  |  | 100% | 100% | > 500 mg/kg |  |  |  |  |  | 100% | 100% | 50% | 70% | 80% | 100%
13 | CC(F)(F)Oc1ccc(C(C)(C)COCc2cccc(Oc3ccccc3)c2)cc1 [Compound 79, 3-Phenoxybenzyl 2-[4-(1,1-difluoroethoxy)phenyl]-2-methylpropyl ether] |  |  | 100% | 100% | > 500 mg/kg |  |  |  |  |  |  |  | 50% | 80% | 90% | 100%
14 | C=COc1ccc(C(C)(C)COCc2cccc(Oc3ccccc3)c2)cc1 [Compound 67, 3-Phenoxybenzyl 2-(4-vinyloxyphenyl)-2-methylpropyl ether] | 90% | 100% | 100% | 100% | > 500 mg/kg |  |  |  |  |  | 90% | 100% | 100% | 100% | 100% | 100%
15 | CC(C)C(C(=O)OC(C#N)c1cccc(Oc2ccccc2)c1)c1ccc(Cl)cc1 (centres unmarked) [Comparative Compound (a), reference compound] |  |  |  |  | 260 mg/kg | < 0.005 µg/mL |  |  |  |  |  |  |  |  |  | 
16 | CC(C)(COCc1cccc(Oc2ccccc2)c1)c1ccc([N+](=O)[O-])cc1 [Compound 43, 3-Phenoxybenzyl 2-(4-nitrophenyl)-2-methylpropyl ether] |  |  | 100% | 100% | > 500 mg/kg |  | 90% | 100% | 100% | 100% | 85% | 100% |  |  |  | 
17 | Cc1ccc(C(C)(C)COCc2cccc(Oc3ccccc3)c2)cc1C [Compound 109] |  |  | 100% | 100% | > 500 mg/kg |  | 70% | 100% | 90% | 100% |  |  |  |  |  | 
